Measurements reported in the supplement of paper PMC10307832.

Assays:
Assay in all cases: relative viability (nuclei count vs DMSO), 5 days (fraction); higher = more cells survive
VE-821 + Alpelisib = compound: CS(=O)(=O)c1ccc(-c2cnc(N)c(C(=O)Nc3ccccc3)n2)cc1 [VE-821] + Cc1nc(NC(=O)N2CCC[C@H]2C(N)=O)sc1-c1ccnc(C(C)(C)C(F)(F)F)c1 [Alpelisib] (partner 2 µM)
How it was run: (§1)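 Lung cancer cell lines in 1536-well plates got either a single drug or a fixed anchor-drug dose together with five library-drug doses (not always all listed) in √10 steps, by pin tool, on the day after seeding. Nuclei were counted after 5 days, and relative viability is the treated-to-vehicle ratio of nuclei counts. Values are medians of duplicate plates.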

Vismodegib + Pemetrexed = compound: CS(=O)(=O)c1ccc(C(=O)Nc2ccc(Cl)c(-c3ccccn3)c2)c(Cl)c1 [Vismodegib] + Nc1nc2[nH]cc(CCc3ccc(C(=O)N[C@@H](CCC(=O)O)C(=O)O)cc3)c2c(=O)[nH]1 [Pemetrexed] (partner 0.2 µM)
How it was run: as §1

Vismodegib + OSI-027 = compound: CS(=O)(=O)c1ccc(C(=O)Nc2ccc(Cl)c(-c3ccccn3)c2)c(Cl)c1 [Vismodegib] + COc1cccc2cc(-c3nc([C@H]4CC[C@H](C(=O)O)CC4)n4ncnc(N)c34)[nH]c12 [OSI-027] (partner 0.5 µM)
How it was run: as §1

VE-821 + Dasatinib = compound: CS(=O)(=O)c1ccc(-c2cnc(N)c(C(=O)Nc3ccccc3)n2)cc1 [VE-821] + Cc1nc(Nc2ncc(C(=O)Nc3c(C)cccc3Cl)s2)cc(N2CCN(CCO)CC2)n1 [Dasatinib] (partner 0.075 µM)
How it was run: as §1

Row | Cell Line | relative viability (VE-821 + Alpelisib; first compound 0.08 µM) | relative viability (VE-821 + Alpelisib; first compound 0.253 µM) | relative viability (VE-821 + Alpelisib; first compound 0.8 µM) | relative viability (VE-821 + Alpelisib; first compound 2.53 µM) | relative viability (VE-821 + Alpelisib; first compound 8 µM) | relative viability (Vismodegib + Pemetrexed; first compound 0.08 µM) | relative viability (Vismodegib + Pemetrexed; first compound 0.253 µM) | relative viability (Vismodegib + Pemetrexed; first compound 0.8 µM) | relative viability (Vismodegib + Pemetrexed; first compound 2.53 µM) | relative viability (Vismodegib + Pemetrexed; first compound 8 µM) | relative viability (Vismodegib + OSI-027; first compound 0.08 µM) | relative viability (Vismodegib + OSI-027; first compound 0.253 µM) | relative viability (Vismodegib + OSI-027; first compound 0.8 µM) | relative viability (Vismodegib + OSI-027; first compound 2.53 µM) | relative viability (Vismodegib + OSI-027; first compound 8 µM) | relative viability (VE-821 + Dasatinib; first compound 0.08 µM) | relative viability (VE-821 + Dasatinib; first compound 0.253 µM) | relative viability (VE-821 + Dasatinib; first compound 0.8 µM) | relative viability (VE-821 + Dasatinib; first compound 2.53 µM) | relative viability (VE-821 + Dasatinib; first compound 8 µM)
1 | EBC-1 | 0.888 | 0.75 | 0.742 | 0.779 | 0.683 | – | – | – | – | – | – | – | – | – | – | – | – | – | – | –
2 | NCI-H1648 | – | – | – | – | – | 0.679 | 0.832 | 0.731 | 0.782 | 0.702 | 0.22 | 0.27 | 0.29 | 0.258 | 0.207 | – | – | – | – | –
3 | NCI-H1623 | – | – | – | – | – | – | – | – | – | – | 0.476 | 0.415 | 0.461 | 0.419 | 0.456 | 0.565 | 0.53 | 0.518 | 0.525 | 0.606
4 | NCI-H661 | 0.693 | 0.705 | 0.573 | 0.765 | 0.559 | 0.915 | 0.854 | 0.887 | 0.876 | 0.941 | 0.735 | 0.705 | 0.723 | 0.738 | 0.731 | 0.934 | 0.668 | 0.884 | 0.865 | 0.434
5 | NCI-H596 | 0.486 | 0.458 | 0.39 | 0.511 | 0.413 | 0.475 | 0.489 | 0.394 | 0.525 | 0.502 | 0.791 | 0.634 | 0.672 | 0.734 | 0.781 | 0.545 | 0.653 | 0.643 | 0.679 | 0.615
6 | IA-LM | 0.905 | 0.475 | 0.797 | 1.04 | 0.738 | – | – | – | – | – | – | – | – | – | – | – | – | – | – | –
7 | LC-2-ad | 0.991 | 0.846 | 0.926 | 1.01 | 0.686 | 0.269 | 0.271 | 0.278 | 0.276 | 0.26 | 0.975 | 0.786 | 0.824 | 0.809 | 0.676 | 0.856 | 0.607 | 0.679 | 0.586 | 0.404
8 | Calu-6 | 0.988 | 0.896 | 0.939 | 0.972 | 0.66 | – | – | – | – | – | – | – | – | – | – | – | – | – | – | –
9 | NCI-H2126 | 0.757 | 0.744 | 0.625 | 0.747 | 0.645 | 0.717 | 0.664 | 0.661 | 0.623 | 0.681 | 0.793 | 0.759 | – | 0.69 | 0.604 | 0.57 | 0.52 | 0.515 | 0.427 | 0.36
10 | NCI-H647 | 1.17 | 1.07 | 0.944 | 0.901 | 0.424 | 0.156 | 0.188 | 0.171 | 0.15 | 0.184 | 0.665 | 0.605 | 0.671 | 0.486 | 0.579 | 0.232 | 0.168 | 0.152 | 0.194 | 0.122
11 | NCI-H322M | 0.728 | – | 0.763 | 0.881 | 0.612 | 0.607 | 0.618 | 0.548 | 0.609 | 0.646 | 0.677 | 0.522 | 0.486 | 0.525 | 0.537 | 0.255 | 0.264 | 0.248 | 0.301 | 0.268
12 | NCI-H358 | 1.04 | 0.999 | 0.904 | 0.838 | 0.605 | 0.18 | 0.183 | 0.174 | 0.172 | 0.181 | 0.775 | 0.711 | 0.8 | 0.807 | 0.853 | 0.157 | 0.156 | 0.183 | 0.209 | 0.213
13 | NCI-H2342 | – | – | – | – | – | 0.769 | 0.821 | 0.81 | 0.611 | 0.719 | 0.698 | 0.651 | 0.522 | 0.627 | 0.637 | 0.331 | 0.329 | 0.311 | 0.324 | 0.293
14 | LK-2 | 1.14 | 1.17 | 0.925 | 1.29 | 0.672 | 0.248 | 0.255 | 0.307 | 0.238 | 0.266 | 0.264 | 0.187 | 0.181 | 0.182 | 0.226 | 0.269 | 0.26 | 0.273 | 0.352 | 0.38
15 | ChaGo-K-1 | – | – | – | – | – | 0.256 | 0.256 | 0.255 | 0.265 | 0.263 | 0.663 | 0.546 | 0.554 | 0.619 | 0.516 | 0.553 | 0.525 | 0.582 | 0.62 | 0.418
16 | NCI-H1299 | 1.09 | 1.04 | 1.12 | 1.09 | 1.07 | – | – | – | – | – | – | – | – | – | – | – | – | – | – | –
17 | ABC-1 | 1.21 | 0.854 | 0.91 | 1.03 | 0.904 | – | – | – | – | – | 0.638 | 0.392 | 0.581 | 0.403 | 0.52 | 0.554 | 0.519 | 0.614 | 0.517 | 0.439
18 | NCI-H1703 | 0.379 | 0.253 | 0.279 | 0.343 | 0.233 | – | – | – | – | – | – | – | – | – | – | – | – | – | – | –
19 | NCI-H522 | – | – | – | – | – | 1.18 | 0.731 | 1.01 | 0.836 | 0.988 | 0.805 | 0.742 | 0.672 | 0.659 | 0.812 | 0.77 | 0.918 | 0.704 | 0.902 | 0.825
20 | NCI-H1650 | – | – | – | – | – | 0.332 | 0.333 | 0.334 | 0.372 | 0.354 | 0.652 | 0.562 | 0.577 | 0.555 | 0.729 | 0.312 | 0.322 | 0.28 | 0.255 | 0.211
21 | SW 900 | – | – | – | – | – | 0.496 | 0.472 | 0.495 | – | 0.496 | 0.62 | 0.395 | 0.432 | 0.616 | 0.637 | 0.7 | 0.545 | 0.397 | 0.658 | 0.37
22 | NCI-H727 | 0.687 | 0.683 | 0.585 | 0.551 | 0.425 | – | – | – | – | – | 0.57 | 0.451 | 0.446 | 0.528 | 0.655 | 0.457 | 0.334 | 0.374 | 0.32 | 0.317
